Here are results for 18 compounds from patent US20250129048A1, “MELANOCORTIN 4 RECEPTOR ANTAGONISTS AND USES THEREOF” (Pfizer Inc., priority 2021, published 2025).

In experiment [1] the target is hMC4R (Homo sapiens (Human), UniProt P32245). The experiment can be described thus: In vitro binding affinity assay using hMC4R (radioligand competition binding, CHO cell membranes). The note with it: competition with [125I]-(Nle4, D-Phe7)-α-MSH 0.5 nM; Ki from IC50 by Cheng-Prusoff; read-out: Ki (nM) geometric mean. The protocol:
The binding affinity of test compounds at the α-melanocyte-stimulating hormone receptor (hMC4R) was assessed using a radioligand competition binding assay. Recombinant Chinese hamster ovaries (CHO) cells stably expressing hMC4R (PerkinElmer #ES-191-C) were used for competitive binding. hMC4R membranes were grown in Dulbecco's Modified Essential Medium and Ham's F-12 Medium (DMEM/F12), 10% heat inactivated fetal bovine serum (FBS), 0.4 mg/mL Geneticin and 2 mM L-glutamine. Cell membranes were bulked and frozen until the assay was performed.
Compounds were solubilized in 100% dimethyl sulfoxide (DMSO) to a concentration of 30 mM. A 10-point intermediate dilution series using half log dilutions was created in 100% DMSO with a top concentration of 0.03 mM. The serially diluted compounds were spotted as 1 μL/well, in 96-well Costar 3363 plates. The final compound range in the assay was 300 nM to 0.01 nM with a final DMSO concentration of 1%. Control wells, containing 1 μL of 2 mM ([…]) alpha-melanocyte stimulating hormone (α-MSH-Tocris #2584) was added to the non-specific binding wells and 1 μL 100% DMSO for the total binding control wells. This was followed by the addition of 80 μL of assay buffer [25 mM HEPES, 5 mM MgCl2, 2.5 mM CaCl2, 150 mM NaCl, Complete EDTA-free Protease Inhibitor Tablet (Thermo Scientific #11873580001) and 0.25% BSA]. […] The exact concentration of radioligand used for each experiment was determined by liquid scintillation counting and adjusted if necessary.
Frozen hMC4R cell membranes were thawed and Dounce homogenized. Homogenates were resuspended in assay buffer to a concentration of 2 μg per well. […] The plates were incubated for 2 hours at room temperature. Assay samples were then rapidly filtered through Unifilter-96 GF/B PEI coated filter plates using a filter plate harvester (PerkinElmer) and rinsed with ice-cold wash buffer [25 mM (4-(2-hydroxyethyl)-1-piperazineethanesulfonic acid (HEPES), 1 mM MgCl2, 2.5 mM CaCl2, and 500 mM NaCl]. Filter plates were dried overnight at room temperature. Plates were then bottom-sealed prior to the addition of 50 μL/well Ultima Gold XR scintillation fluid (PerkinElmer 6013111). Plates were then top-sealed, incubated for 60 minutes at room temperature and then the amount of radioactivity present was determined by liquid scintillation counting on a Microbeta Trilux (PerkinElmer #2450-0060).
The raw data (expressed as counts per minute) were analyzed using ActivityBase (IDBS Data Management Software). […] Equilibrium dissociation constant for inhibitor of ligand and receptor interaction (Ki) values were then calculated from the IC50 values using the Cheng-Prusoff equation: Ki=IC50/(1+([L]/Kd)), where [L] is the concentration of the radioligand used in the experiment and Kd is the affinity of the radioligand (determined in separate saturation experiments).

Experiment [2] addresses human Melanocortin-4 receptor (MC4R) (Homo sapiens (Human), UniProt P32245). The experiment can be described thus: Functional in vitro MC4R antagonist potency assay (intracellular cAMP, HTRF, CHO cells). It counts as cell-based. The settings on record: cAMP after EC80 agonist stimulation (200 nM αMSH); Kb from IC50 by Leff-Dougall equation; read-out: Kb (nM) Antagonist geometric mean. As to the method:
The functional in vitro antagonist potency for test compounds was determined by monitoring intracellular cyclic adenosine monophosphate (cAMP) levels in Chinese hamster ovary (CHO—) cells stably expressing the human Melanocortin-4 receptor (MC4R). Following agonist activation, human MC4R associates with the G-protein complex causing the Ga subunit to exchange bound GDP for GTP, followed by dissociation of the Gα-GTP complex. The activated Ga subunit can couple to downstream effectors to regulate the levels of second messengers or cAMP within the cell. Thereby, determination of intracellular cAMP levels allows for pharmacological characterization. Intracellular cAMP levels are quantitated using a homogenous assay utilizing the Homogeneous Time-Resolved Fluorescence (HTRF) technology from CisBio. The method is a competitive immunoassay between native cAMP produced by cells and the cAMP labelled with the acceptor dye, d2. The two entities then compete for binding to a monoclonal anti-cAMP antibody labeled with cryptate. The specific signal is inversely proportional to the concentration of cAMP in the cells.
Test compounds were solubilized to 30 mM in 100% dimethyl sulfoxide (DMSO) and stored. An 11-point dilution series using 1 in 3 162-fold serial dilutions was created in 100% DMSO with a top concentration of 800 μM. The serially diluted compound was spotted into a 384-well plate (Greiner, Cat No. 781280) at 40 nL/well with duplicate points at each concentration, and then diluted 1 in 1000 with 40 μL assay buffer containing HBSS, 20 mM HEPES (Invitrogen), 0.1% BSA, and 250 μM IBMX (Sigma Aldrich) to create an intermediate plate at 2× final assay concentration (FAC). The final compound concentration range in the assay was 400 nM to […], with a final DMSO concentration of 0.1%.
In-house generated CHO cells stably expressing the Gs-coupled human MC4R receptor were plated in 384-well assay plates (Corning, Cat No. 3570) in 50 μL/well of Ham's F-12 containing 10% heat inactivated FBS, 1× penicillin/streptomycin, 1 mM Glutamax (Invitrogen) at a density of 2,500 cells per well and incubated at 37° C. (95% O2: 5% CO2) overnight, with micro-clime lids (Labcyte, Cat No. LLS-0310). On day of assay, media was removed from the assay plate through gentle flicking and blotting plate on a paper towel and replaced with 5 μL of 2× antagonist compound in assay buffer (HBSS, 20 mM HEPES, 0.1% BSA, 250 μM IBMX) and 0.1% DMSO. Cells were incubated with compound for 30 minutes at 37° C. (95% O2: 5% CO2) before addition of 5 μL EC80 agonist stimulation (200 nM α-melanocyte stimulating hormone, αMSH, Bachem) and another 30-minute incubation at 37° C. (95% O2: 5% CO2). Intracellular cAMP levels were quantified as per Cisbio's protocol (5 μL of D2 and then 5 μL Cryptate, incubated for 1-2 hours at room temperature). Samples were measured on an Envision plate reader (PerkinElmer Life and Analytical Sciences; excitation, 320 nm; emission, 665 nm/620 nm).
Data were analyzed using the ratio of fluorescence intensity at 620 and 665 nm for each well, extrapolated from the cAMP standard curve to express data as nM cAMP for each well. Data expressed as nM cAMP were then normalized to control wells using Activity Base (IDBS). Zero percent effect (ZPE) was defined as nM of cAMP generated from EC80 agonist stimulation (200 nM αMSH). In the absence of an antagonist control compound, one hundred percent effect (HPE) was defined as nM of cAMP generated from assay buffer/vehicle only.

Structures are written as SMILES.

Sequence of human Melanocortin-4 receptor (MC4R) (P32245 whole entry): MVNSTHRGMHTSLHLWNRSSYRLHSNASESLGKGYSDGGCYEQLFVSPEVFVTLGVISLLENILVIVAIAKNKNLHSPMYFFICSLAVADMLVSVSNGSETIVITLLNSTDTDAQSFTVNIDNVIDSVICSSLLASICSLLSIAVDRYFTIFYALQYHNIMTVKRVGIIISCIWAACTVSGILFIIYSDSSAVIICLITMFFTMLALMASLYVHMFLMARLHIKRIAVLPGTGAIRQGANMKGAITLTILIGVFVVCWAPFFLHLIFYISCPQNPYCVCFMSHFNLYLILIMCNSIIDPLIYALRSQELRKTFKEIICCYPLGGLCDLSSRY
Sequence of hMC4R (P32245 whole entry): as above

For the compound `COc1cc(OC)cc([C@@H](C)C(=O)N2CC[C@H](Nc3ccc(-c4nc(C(F)(F)F)n(C)n4)c(C)n3)C2)c1` [Example 39, (2R)-2-(3,5-dimethoxyphenyl)-1-[(3S)-3-({6-methyl-5-[1-methyl-5-(trifluoromethyl)-1H-1,2,4-triazol-3-yl]pyridin-2-yl}amino)pyrrolidin-1-yl]propan-1-one], in experiment [1], the Ki amounted to 0.28 nM. Further, the Kb in experiment [2] is 3.3 nM.
`COc1cc([C@@H](C)C(=O)N2CC[C@H](Nc3ccc(-c4nc(C(C)(F)F)n(C)n4)c(C)n3)C2)c(Cl)cn1` (single isomer, unassigned) [Example 37B]: the inhibitory constant (Ki) in experiment [1] was 0.53 nM. Moreover, the Kb in experiment [2] was determined as 4.1 nM.
The corresponding values for `COc1ccc(C)c([C@@H](C)C(=O)N2CC[C@H](Nc3ccc(-c4cn(C)cn4)c(C)n3)C2)c1` (single isomer, unassigned) [Example 20B] are 0.23 nM and 2.9 nM.
In the same order, the values of `COc1cccc([C@@H](C)C(=O)N2CC[C@H](Nc3ccc(-c4cn(C)c(C(C)(F)F)n4)c(C)n3)C2)c1` (single isomer, unassigned) [Example 14B] are 0.45 nM and 14 nM.
In the same order, the values of `COc1cc([C@@H](C)C(=O)N2CC[C@H](Nc3ccc(-c4ncccn4)c(C)n3)C2)cc(OC(F)F)n1` (single isomer, unassigned) [Example 30B] are 0.93 nM and 6.8 nM.
As to `COc1cc([C@@H](C)C(=O)N2CC[C@H](Nc3ccc(-c4nc(C(F)(F)F)n(C)n4)c(C)n3)C2)c(F)cn1` [Example 2, (2R)-2-(5-fluoro-2-methoxypyridin-4-yl)-1-[(3S)-3-({6-methyl-5-[1-methyl-5-(trifluoromethyl)-1H-1,2,4-triazol-3-yl]pyridin-2-yl}amino)pyrrolidin-1-yl]propan-1-one], in experiment [1], the Ki was determined as 1.2 nM. In experiment [2], the antagonist dissociation constant (Kb) amounted to 7.2 nM.
On to `COc1cc([C@@H](C)C(=O)N2CC[C@H](Nc3ccc(-c4nc(C(F)F)n(C)n4)c(C)n3)C2)c(Cl)cn1` (single isomer, unassigned) [Example 24B], for which, in experiment [1], the inhibition constant (Ki) is 0.49 nM. The antagonist equilibrium constant (Kb) in experiment [2] came out at 0.96 nM.
In the same order, the values of `COc1cc([C@@H](C)C(=O)N2CC[C@H](Nc3ccc(-c4cn(C)c(C(C)(F)F)n4)c(C)n3)C2)c(F)cn1` (single isomer, unassigned) [Example 21B] are 0.48 nM and 2.6 nM.
In the same order, the values of `Cc1nc(N[C@H]2CCN(C(=O)Cc3cc(F)c(F)c(F)c3)C2)ccc1-c1cn(C)c(C(F)F)n1` [Example 28, 1-[(3S)-3-({5-[2-(difluoromethyl)-1-methyl-1H-imidazol-4-yl]-6-methylpyridin-2-yl}amino)pyrrolidin-1-yl]-2-(3,4,5-trifluorophenyl)ethan-1-one] are 0.25 nM and 1.3 nM.
The corresponding values for `COc1cc([C@@H](C)C(=O)N2CC[C@H](Nc3ccc(-c4nc(C(F)F)n(C)n4)c(C)n3)C2)nc(C)n1` (single isomer, unassigned) [Example 41B] are 2 nM and 3.6 nM.
Consider `COc1cc([C@@H](C)C(=O)N2CC[C@H](Nc3ccc(-c4nnn(C)n4)c(C)n3)C2)c(F)cn1` [Example 5, (2R)-2-(5-fluoro-2-methoxypyridin-4-yl)-1-[(3S)-3-{[6-methyl-5-(2-methyl-2H-tetrazol-5-yl)pyridin-2-yl]amino}pyrrolidin-1-yl]propan-1-one], for which the Ki in experiment [1] was found to be 2.6 nM. Further, the Kb in experiment [2] came to 17 nM.
The corresponding values for `COc1cc([C@@H](C)C(=O)N2CC[C@H](Nc3ccc(-c4nc(C(C)(F)F)n(C)n4)c(C)n3)C2)c(F)cn1` [Example 4, (2R)-1-[(3S)-3-({5-[5-(1,1-difluoroethyl)-1-methyl-1H-1,2,4-triazol-3-yl]-6-methylpyridin-2-yl}amino)pyrrolidin-1-yl]-2-(5-fluoro-2-methoxypyridin-4-yl)propan-1-one] are 1 nM and 9.6 nM.
The corresponding values for `COc1cc(OC(F)F)cc([C@@H](C)C(=O)N2CC[C@H](Nc3ccc(-c4ncccn4)c(C)n3)C2)c1` (single isomer, unassigned) [Example 44A] are over 220 nM and over 97 nM.
The corresponding values for `COc1cc([C@@H](C)C(=O)N2CC[C@H](Nc3ccc(-c4nc(C(F)(F)F)n(C)n4)c(C)n3)C2)c(Cl)cn1` (single isomer, unassigned) [Example 25B] are 0.49 nM and 1.8 nM.
As to `COc1cc([C@@H](C)C(=O)N2CC[C@H](Nc3ccc(-c4ncccn4)c(C)n3)C2)cc(OC(F)F)n1` (single isomer, unassigned) [Example 30A], in experiment [1], the Ki is over 200 nM. Further, in experiment [2], the Kb was over 62 nM.
Consider `Cc1nc(N[C@H]2CCN(C(=O)Cc3ccc(F)cc3)C2(C)C)ccc1-c1cn(C)cn1` [Example 3B, 1-[(3S)-2,2-dimethyl-3-{[6-methyl-5-(1-methyl-1H-imidazol-4-yl)pyridin-2-yl]amino}pyrrolidin-1-yl]-2-(4-fluorophenyl)ethan-1-one], for which the Ki in experiment [1] came out at 4.2 nM. Also, the Kb in experiment [2] was determined as 33 nM.
The corresponding values for `COc1cc([C@@H](C)C(=O)N2CC[C@H](Nc3ccc(-c4nnn(C)n4)c(C)n3)C2)c(Cl)cn1` [Example 1, (2R)-2-(5-chloro-2-methoxypyridin-4-yl)-1-[(3S)-3-{[6-methyl-5-(2-methyl-2H-tetrazol-5-yl)pyridin-2-yl]amino}pyrrolidin-1-yl]propan-1-one] are 0.88 nM and 5.1 nM.
In the same order, the values of `COc1cc([C@@H](C)C(=O)N2CC[C@H](Nc3ccc(-c4cn(C)c(C(F)F)n4)c(C)n3)C2)cc(OC)n1` (single isomer, unassigned) [Example 12A] are 0.31 nM and 1.9 nM.
